Article PMC11931604 (Drug Development Research, 2025)

Target: D112_2N-mutant H3 HA (A/X-31) (Influenza A virus, UniProt P03438, D457N)
Type: cell-based, influenza A/H3N2 virus

## CC1CCC2(CC1)SC(C)C(=O)N2NC(=O)c1ccc(C(C)(C)C)cc1 (stereo not shown) [Compound 2c, 4‐(tert‐Butyl)‐N‐(2,8‐dimethyl‐3‐oxo‐1‐thia‐4‐azaspiro[4.5]decan‐4‐yl)benzamide]
  inhibition of membrane fusion in cells expressing D112_2N-substituted HA: no inhibition
